Assay results published in patent US20070299062A1 (The Procter & Gamble Company, priority 2006, published 2007).
Where two headings read alike, the source gives them in different places.

What was measured:
5-HT2c receptor = target: T1, 5-HT2c receptor (Homo sapiens, UniProt P28335); experiment: 5-HT2c receptor binding assay (3H-mesulergine competition)
T1 construct: purchased Perkin-Elmer or Euroscreen (named only as possible suppliers)
T1 sequence (P28335 33-458): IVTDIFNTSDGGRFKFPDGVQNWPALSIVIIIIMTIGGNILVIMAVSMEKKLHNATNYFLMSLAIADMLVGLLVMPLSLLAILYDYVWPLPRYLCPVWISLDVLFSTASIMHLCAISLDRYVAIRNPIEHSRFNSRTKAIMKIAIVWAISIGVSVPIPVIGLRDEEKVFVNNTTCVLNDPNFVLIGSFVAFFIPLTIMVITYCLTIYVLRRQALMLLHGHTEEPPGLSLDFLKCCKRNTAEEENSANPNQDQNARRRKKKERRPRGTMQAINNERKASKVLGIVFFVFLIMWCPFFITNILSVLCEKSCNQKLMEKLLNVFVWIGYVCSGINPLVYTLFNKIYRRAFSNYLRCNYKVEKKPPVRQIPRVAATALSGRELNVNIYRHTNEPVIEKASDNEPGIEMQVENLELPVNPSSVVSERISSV
Experimental: MCH antagonist compounds are evaluated for binding to the serotonin 5-HT2c receptor to determine receptor selectivity. Binding activity is assessed using a competitive assay with ^3H-mesulergine (Perkin Elmer), a 5-HT2c selective ligand, on membrane containing the 5-HT2c receptor. Briefly, 1 nM ^3H-mesulergine and varying concentrations of the compound are incubated with 5-HT2c receptor membranes, following an incubation period, the membranes are washed and ^3H-mesulergine bound to membranes is measured in a liquid scintillation counter. The amount of bound ^3H-mesulergine at the varying concentration of competitor compound is used to derive the affinity (Ki) of the compound for the 5-HT2c receptor. 5-HT2c receptor containing membranes are readily available from several companies including Perkin-Elmer and Euroscreen.

MCH-1R = MCH-1R (UniProt Q99705); experiment: MCH-1R competition binding assay
Experimental: In vitro binding and function assays are performed on membranes derived from cells or tissues expressing endogenous MCH1R. Competition binding assays are performed to identify high affinity compounds. Briefly, either radiolabeled or europium labeled MCH with varying concentrations of competitor compound which are incubated with membranes expressing the receptor. Rat brain membrane or cell lines, including but not limited to human Kelly neuroblastoma cells, A-431 epidermoid cells, and rat PC-12 cells are known to express endogenous MCH1R and are used in the assay. Binding is allowed to proceed until equilibrium is reached then bound labeled MCH is separated from free MCH by capturing membranes onto a filter. The filters are washed to remove loosely associated MCH and labeled MCH is quantified. Data is analyzed and IC50 and Ki are calculated to determine compound affinity.

[1] = 1 nM 3H-mesulergine, read-out: Ki (nM) binding data 5-HT2C

O=c1c2sc(-c3ccc(Cl)cc3)cc2ncn1[C@H]1CCc2cc(CNC(CO)CO)ccc2C1 [6-(4-Chlorophenyl)-3-{(S)-6-[(2-hydroxy-1-hydroxymethylethylamino)methyl]-1,2,3,4-tetrahydronapthealen-2-yl}thieno[3,2-d]pyrimidin-4(3H)-one]
Ki (5-HT2c receptor; [1]): > 100000 nM | Ki (MCH-1R): 10.7 nM

CN(CCS(C)(=O)=O)Cc1ccc2c(c1)CC[C@H](n1cnc3cc(-c4ccc(Cl)cc4)sc3c1=O)C2 [6-(4-Chlorophenyl)-3-((S)-6-{[2-methanesulfonylethyl)methylamino]methyl}-1,2,3,4-tetrahydronapthealen-2-yl)thieno[3,2-d]pyrimidin-4(3H)-one]
Ki (5-HT2c receptor; [1]): > 100000 nM | Ki (MCH-1R): 15.8 nM

CC(=O)N1CCN(Cc2ccc3c(c2)CC[C@H](n2cnc4cc(-c5ccsc5)sc4c2=O)C3)CC1 [(S)-3-[6-(4-Acetylpiperazin-1-ymethyl)-1,2,3,4-tetrahydronapthalen-2-yl]-6-(thien-3-yl)thieno[3,2-d]pyrimidin-4(3H)-one]
Ki (5-HT2c receptor; [1]): 2010 nM | Ki (MCH-1R): 137 nM

COc1ccc(-c2cc3ncn([C@H]4CCc5cc(CN6CCN(C(C)=O)CC6)ccc5C4)c(=O)c3s2)cc1 [(S)-3-[6-(4-Acetylpiperazin-1-ymethyl)-1,2,3,4-tetrahydronapthalen-2-yl]-6-(4-methoxyphenyl)thieno[3,2-d]pyrimidin-4(3H)-one]
Ki (5-HT2c receptor; [1]): > 100000 nM | Ki (MCH-1R): 65.2 nM

CC(=O)N1CCN(Cc2ccc3c(c2)CC[C@H](n2cnc4cc(-c5ccc(Cl)cc5Cl)sc4c2=O)C3)CC1 [(S)-3-[6-(4-Acetylpiperazin-1-ymethyl)-1,2,3,4-tetrahydronapthalen-2-yl]-6-(2,4dichlorophenyl)thieno[3,2-d]pyrimidin-4(3H)-one]
Ki (5-HT2c receptor; [1]): 2370 nM | Ki (MCH-1R): 24.7 nM

CC(=O)N1CC2CC1CN2Cc1ccc2c(c1)CC[C@H](n1cnc3cc(-c4ccc(Cl)cc4)sc3c1=O)C2 (stereo partly drawn) [(S)-6-(4-Chlorophenyl)-3-[6-(5-acetyl-2,5-diaza-bicyclo[2.2.1]hept-2-ylmethyl)-1,2,3,4-tetrahydronaphthalen-2-yl)thieno[3,2-d]pyrimidin-4(3H)-one]
Ki (5-HT2c receptor; [1]): > 100000 nM | Ki (MCH-1R): 1.8 nM

CNCc1ccc2c(c1)CC[C@H](n1cnc3cc(-c4ccc(Cl)cc4)sc3c1=O)C2 [6-(4-Chlorophenyl)-3-((S)-6-methylaminomethyl-1,2,3,4-tetrahydronapthealen-2-yl)thieno[3,2-d]pyrimidin-4(3H)-one]
Ki (5-HT2c receptor; [1]): 2140 nM | Ki (MCH-1R): 0.4 nM

CC(=O)N1CCN(Cc2ccc3c(c2)CC[C@H](n2cnc4cc(-c5cccs5)sc4c2=O)C3)CC1 [(S)-3-[6-(4-Acetylpiperazin-1-ymethyl)-1,2,3,4-tetrahydronapthalen-2-yl]-6-(thien-2-yl)thieno[3,2-d]pyrimidin-4(3H)-one]
Ki (5-HT2c receptor; [1]): 1760 nM | Ki (MCH-1R): 270 nM

CC(=O)N1CCN(Cc2ccc3c(c2)CC[C@H](n2cnc4cc(-c5ccc(C)cc5)sc4c2=O)C3)CC1 [(S)-3-[6-(4-Acetylpiperazin-1-ymethyl)-1,2,3,4-tetrahydronapthalen-2-yl]-6-(4-methylphenyl)thieno[3,2-d]pyrimidin-4(3H)-one]
Ki (5-HT2c receptor; [1]): 5460 nM | Ki (MCH-1R): 16.1 nM

CS(=O)(=O)N1CCN(Cc2ccc3c(c2)CC[C@H](n2cnc4cc(-c5cc(F)cc(F)c5)sc4c2=O)C3)CC1
Ki (5-HT2c receptor; [1]): > 100000 nM | Ki (MCH-1R): 117 nM

CCN(CC)Cc1ccc2c(c1)CC[C@H](n1cnc3cc(-c4ccc(Cl)cc4)sc3c1=O)C2 [(S)-6-(4-Chlorophenyl)-3-(6-diethylaminomethyl-1,2,3,4-tetrahydronaphthalen-2-yl)-4a,7a-dihydro-3H-thieno[3,2-d]pyrimidin-4-one]
Ki (5-HT2c receptor): 6780 nM | Ki (MCH-1R): 13 nM

CS(=O)(=O)N1CCN(Cc2ccc3c(c2)CC[C@H](n2cnc4cc(-c5cccs5)sc4c2=O)C3)CC1
Ki (5-HT2c receptor; [1]): > 100000 nM | Ki (MCH-1R): 122 nM

CC(=O)N1CCN(Cc2ccc3c(c2)CC[C@H](n2cnc4cc(-c5ccc(C#N)cc5)sc4c2=O)C3)CC1 [(S)-3-[6-(4-Acetylpiperazin-1-ymethyl)-1,2,3,4-tetrahydronapthalen-2-yl]-6-(4-cyanophenyl)thieno[3,2-d]pyrimidin-4(3H)-one]
Ki (5-HT2c receptor; [1]): > 100000 nM

CC(=O)N1CCN(Cc2ccc3c(c2)CC[C@H](n2cnc4cc(-c5ccc(F)cc5)sc4c2=O)C3)CC1 [(S)-3-[6-(4-Acetylpiperazin-1-ymethyl)-1,2,3,4-tetrahydronapthalen-2-yl]-6-(4-fluorophenyl)thieno[3,2-d]pyrimidin-4(3H)-one]
Ki (5-HT2c receptor; [1]): 6360 nM | Ki (MCH-1R): 9.4 nM

CC(=O)N1CCN(Cc2ccc3c(c2)CC[C@H](n2cnc4cc(-c5cccc(Cl)c5)sc4c2=O)C3)CC1 [(S)-3-[6-(4-Acetylpiperazin-l-ymethyl)-1,2,3,4-tetrahydronapthalen-2-yl]-6-(3-chlorophenyl)thieno[3,2-d]pyrimidin-4(3H)-one]
Ki (5-HT2c receptor; [1]): > 100000 nM | Ki (MCH-1R): 70.5 nM

CC(=O)N1CCN(Cc2ccc3c(c2)CC[C@H](n2cnc4cc(-c5cccnc5F)sc4c2=O)C3)CC1 [(S)-3-[6-(4-Acetylpiperazin-1-ymethyl)-1,2,3,4-tetrahydronapthalen-2-yl]-6-(2-fluoropyridin-3-yl)thieno[3,2-d]pyrimidin-4(3H)-one]
Ki (5-HT2c receptor; [1]): > 100000 nM | Ki (MCH-1R): 813 nM

CS(=O)(=O)N1CCN(Cc2ccc3c(c2)CC[C@H](n2cnc4cc(-c5ccc(Cl)c(Cl)c5)sc4c2=O)C3)CC1
Ki (5-HT2c receptor; [1]): > 100000 nM | Ki (MCH-1R): 142 nM

CS(=O)(=O)N1CCN(Cc2ccc3c(c2)CC[C@H](n2cnc4cc(-c5ccsc5)sc4c2=O)C3)CC1
Ki (5-HT2c receptor; [1]): > 100000 nM | Ki (MCH-1R): 60 nM

CC(=O)N1CCN(Cc2ccc3c(c2)CC[C@H](n2cnc4cc(-c5ccc(C#N)cc5)sc4c2=O)C3)CC1 [(S)-4-(3-(6-((4-acetylpiperazin-1-yl)methyl)-1,2,3,4-tetrahy] [(S)-4-(3-(6-((4-acetylpiperazin-1-yl)methyl)-1,2,3,4-tetrahydronaphthalen-2-yl)-4-oxo-3,4-dihydrothieno[3,2-d]pyrimidin-6-yl)benzonitrile]
Ki (5-HT2c receptor; [1]): > 100000 nM | Ki (MCH-1R): 397 nM

CS(=O)(=O)N1CCN(Cc2ccc3c(c2)CC[C@H](n2cnc4cc(-c5ccnc(Cl)c5)sc4c2=O)C3)CC1
Ki (5-HT2c receptor; [1]): > 100000 nM | Ki (MCH-1R): 157 nM

O=c1c2sc(-c3ccc(Cl)cc3)cc2ncn1[C@H]1CCc2cc(CN3CCOCC3)ccc2C1 [(S)-6-(4-Chlorophenyl)-3-[6-(morpholinomethyl)-1,2,3,4-tetrahydronapthalene-2-yl]thieno[3,2-d]pyrimidin-4-(3H)-one]
Ki (5-HT2c receptor; [1]): > 100000 nM | Ki (MCH-1R): 103 nM

CS(=O)(=O)N1CCN(Cc2ccc3c(c2)CC[C@H](n2cnc4cc(-c5ccoc5)sc4c2=O)C3)CC1
Ki (5-HT2c receptor; [1]): > 100000 nM | Ki (MCH-1R): 733 nM

O=c1c2sc(-c3ccc(Cl)cc3)cc2ncn1[C@H]1CCc2cc(CN3CCS(=O)(=O)CC3)ccc2C1 [(S)-6-(4-Chlorophenyl)-3-[6-(1,1-dioxo-1λ^6-thiomorpholin-4-ylmethyl)-1,2,3,4-tetrahydronaphthalen-2-yl)thieno[3,2-d]pyrimidin-4(3H)-one]
Ki (5-HT2c receptor; [1]): > 100000 nM | Ki (MCH-1R): 1020 nM

O=c1c2sc(-c3ccc(Cl)cc3)cc2ncn1[C@H]1CCc2cc(CN3CC[C@H](O)C3)ccc2C1 [6-(4-Chlorophenyl)-3-{(S)-6-[((S)-3-hydroxypyrrolidin-1-yl)methyl]-1,2,3,4-tetrahydronaphthalen-2-yl}thieno[3,2-d]pyrimidin-4(3H)-one]
Ki (5-HT2c receptor; [1]): 9550 nM | Ki (MCH-1R): 24 nM

CC(=O)N1CCN(Cc2ccc3c(c2)CC[C@H](n2cnc4cc(-c5cccnc5)sc4c2=O)C3)CC1 [(S)-3-[6-(4-Acetylpiperazin-1-ymethyl)-1,2,3,4-tetrahydronapthalen-2-yl]-6-(pyridin-3-yl)thieno[3,2-d]pyrimidin-4(3H)-one]
Ki (5-HT2c receptor; [1]): > 100000 nM | Ki (MCH-1R): 1930 nM

CC(=O)N1CCN(Cc2ccc3c(c2)CC[C@H](n2cnc4cc(-c5ccc(Cl)cc5)sc4c2=O)C3)CC1 [(S)-3-(6-((4-Acetylpiperazin-1-yl)methyl)-1,2,3,4-tetrahydronapthalen-2-yl)-6-(4-chlorophenyl)thieno[3,2-d]pyrimidine-4(3H)-one]
Ki (5-HT2c receptor; [1]): 14600 nM | Ki (MCH-1R): 35 nM

CC(=O)N1CCN(Cc2ccc3c(c2)CC[C@H](n2cnc4cc(-c5ccc(C#N)cc5)sc4c2=O)C3)CC1 [(S)-3-[6-(4-Acetylpiperazin-1-ymethyl)-1,2,3,4-tetrahydronap] [(S)-3-[6-(4-Acetylpiperazin-1-ymethyl)-1,2,3,4-tetrahydronapthalen-2-yl]-6-(4-cyanophenyl)thieno[3,2-d]pyrimidin-4(3H)-one]
Ki (MCH-1R): 34 nM
